One data set deals with FimX^full-length (Pseudomonas aeruginosa, UniProt Q9HUK6). The data set is described as follows: isothermal titration calorimetry. The format is binding. In general terms: Isothermal titration calorimetry measures the heat released or taken up as one component is titrated into another.
A further data set addresses FimX^EAL (Pseudomonas aeruginosa, UniProt Q9HUK6). Description: isothermal titration calorimetry. The format is binding.
The data set “AUC” deals with the molecule itself. Description: AUC.

The values below come from paper PMC2747306 (Structure (London, England : 1993), 2009).

Broadly, the Kd is the concentration at which binding is half-saturated. Low readings indicate tighter binding, high ones weaker binding. `Nc1nc2c(ncn2[C@@H]2O[C@@H]3CO[P@](=O)(O)O[C@H]4[C@@H](O)[C@H](n5cnc6c(=O)[nH]c(N)nc65)O[C@@H]4CO[P@](=O)(O)O[C@H]3[C@H]2O)c(=O)[nH]1` [c-di-GMP]: the equilibrium dissociation constant (Kd) at FimX^full-length stood at 125 nM; at FimX^EAL, 104 nM.

B1: FimX^ΔEAL (residues 1-431: N-terminal response receiver, PAS and GGDEF domains) (domain or fragment)
chain: MAIEKKTIRLLILEDSQNEAERLVSLFRNAGHATRVHRLTSPEDLAETLQQSWDLLIAAPTSECLEPGEALATLRRQSRDIPFIQLVADNSSDAITDALMLGAQDALPQGEDERLVLVANRELAGLAERRARRAAELALREAEKRCQLLLDSSVDAITYVHDGMHIYANRSYMALFGYEDAEELEGLPVIDLIASCDQGAFKDFLKGYQNDQRQTELVCTGVKLDGQEFKARISLSAATYDGEPCIQVVIRGEVDNAELEEKLREVSSQDPVTGLYNRSHFLDLMDAAVQQAVTARKPSTLAYIHLNGYPSLQADHGLSGIDLLLGQLAGLMREQFGEEADLARFGDSIFAALFKGKTPEQAQAALQRLLKKVENHLFELNGRSAQATLSIGVAGLDEKTAKAQDVMNRAHRCADDAARKGGSQIKQYNPA
Broadly, the stoichiometry N is the number of molecules, sites or subunits per partner or assembly. For the molecule B1, the “stoichiometry N” value in the data set “AUC” worked out at 2.
